Test results reported in publication PMC12378234, “Enzyme-mediated aminoglycoside resistance without target mimicry” (Communications Chemistry, 2025).
≈ marks a conversion by molar mass, not a printed value. Where “and” joins values, the source holds several entries; their conditions need not be identical. Identical values can stand only once. Like-named read-outs stand apart in the source and are kept apart here.

Assays:
[1] = tested on: BL21(DE3) E. coli transformed with pUCP18 vector expressing AAC(3)-Ia; experiment: Antibiotic susceptibility testing, endpoint MIC assay; type: cell-based; conditions: Escherichia coli, 20 h, read-out: Endpoint minimum inhibitory concentration (MIC)
Experimental: (§1) Ten milliliters of cultures of LB containing […] ampicillin were inoculated from glycerol stocks of transformed BL21(DE3) E. coli containing genes expressing the proteins of interest in pUCP18 vectors. Experiments were performed using 6xHis-tagged fusion-proteins, as well as untagged wild-type proteins. These cultures were incubated at 37 °C with 200 rpm agitation for 16 h. Turbidity was measured through OD600 with a NanoDrop OneC Spectrometer (Thermo Scientific). From the initial cultures, secondary 10 mL cultures were prepared with OD600 values of 0.1. These cultures were grown until OD600 values of 0.4–0.6 were reached and diluted to bring all cultures to the same OD600. Cultures were induced with 1 mM Isopropyl β-D-1-thiogalactopyranoside and incubated for 4 h. Cultures were diluted to 1 × 10^6 cells mL^−1. Two microliters of culture was added to 198 μL of LB with an appropriate aminoglycoside titration concentration. The formulated 96-well culture plate (Sarstedt) was incubated at 37 °C with 120 rpm orbital agitation. The remainder of the bacterial culture was immediately lysed and processed for Western blotting. OD600 was measured after 20 h using the Molecular Devices Spectra MAX 190 plate reader.

[2] = tested on: empty pUCP18 vector transformed E. coli; experiment: as above; type: cell-based; conditions: Escherichia coli; empty pUCP18 vector control E. coli; after 20 h of growth; read-out: Endpoint minimum inhibitory concentration (MIC)
Experimental: as §1

[3] = tested on: BL21(DE3) E. coli transformed with pUCP18 vector expressing AAC(3)-IIIa; experiment: as above; type: cell-based; conditions: Escherichia coli, 20 h, read-out: Endpoint minimum inhibitory concentration (MIC)
Experimental: as §1

[4] = tested on: BL21(DE3) E. coli transformed with pUCP18 vector expressing AAC(3)-XIa; experiment: as above; type: cell-based; conditions: Escherichia coli, 20 h, read-out: Endpoint minimum inhibitory concentration (MIC)
Experimental: as §1

AAC(3)-IIIa = biological target: T1, AAC(3)-IIIa (Pseudomonas aeruginosa, UniProt P29808); experiment: Isothermal titration calorimetry; type: binding, P. aeruginosa
T1 construct: 6xHis-tag (thrombin-cleavable, pET15b) (N); made in house; host or cells: LOBSTR E. coli
Experimental: (§2) To accurately measure protein ligand interactions, the concentration of our proteins of interest was measured spectrophotometrically using the NanoDrop OneC Spectrometer (Thermo Scientific). ITC experiments were performed on a MicroCal iTC 200 (General Electric) at 25 °C with stirring at 750 rpm. Unique buffer solutions were used for each enzyme. AAC(3)-Ia was prepared in 50 mM HEPES, pH 7, and 150 mM NaCl. AAC(3)-IIIa was prepared in 120 mM Tris, pH 7.5, and 150 mM NaCl. AAC(3)-XIa was prepared in 20 mM Tris, pH 7.5, and 150 mM NaCl. The cell contained 550 μM AAC(3)-Ia, 350 μM AAC(3)-IIIa, or 450 μM AAC(3)-XIa. All experiments also contained 5000 μM of coenzyme A trilithium salt in the cell. […] In all ITC experiments, aminoglycosides were prepared in the same buffering solution as the target protein. The ligands were injected 29 times ([…] per injection) with a 180 s interval between injections. Results were analyzed using ORIGIN software version 7E (MicroCal) using the molecular weight of a single protomer of each protein and fitted with a two-set of sites binding model (Supplementary Fig. 5). Data analysis was performed in Microsoft Excel and GraphPad5 software. One-way ANOVA and Tukey’s multiple comparison tests were used to determine the statistical significance of binding affinities.

[5] = tested on: BL21(DE3) E. coli transformed with pUCP18 vector expressing untagged AAC(3)-XIa; type: cell-based; conditions: E. coli expressing AAC(3)-XIa
Experimental: (§3) Ten milliliters of LB containing […] ampicillin were inoculated from glycerol stocks of transformed BL21(DE3) E. coli containing genes expressing the proteins of interest in pUCP18 vectors. These cultures were incubated at 37 °C with 200 rpm agitation for 16 h. Turbidity was measured through OD600 with a NanoDrop OneC Spectrometer (Thermo Scientific). From the initial cultures, secondary 10 mL cultures were prepared with OD600 values of 0.1. These cultures were grown until OD600 values of 0.4–0.6 were reached and diluted to bring all cultures to the same OD600. Cultures were induced with 1 mM Isopropyl β-D-1-thiogalactopyranoside and incubated for 4 h. Two microliters of culture was added to 198 μL of LB with an appropriate aminoglycoside titration concentration. Each titration point was repeated n = 4 times. The formulated 96-well culture plate (Sarstedt) had OD600 measured on a 20-min interval over 17 h using a BioTek Cytation 5 Cell Imaging Multimode Reader, incubating at 37 °C with 282 cpm orbital agitation. Experiments were repeated with fresh cultures on separate days to ensure consistent trends. Data was analyzed in Microsoft Excel and GraphPad5. The remainder of the culture immediately had its RNA isolated for qPCR experiments.

[6] = tested on: BL21(DE3) E. coli transformed with pUCP18 vector expressing untagged AAC(3)-Ia; type: cell-based; conditions: E. coli expressing AAC(3)-Ia
Experimental: as §3

[7] = tested on: BL21(DE3) E. coli transformed with pUCP18 vector expressing untagged AAC(3)-IIIa; type: cell-based; conditions: E. coli expressing AAC(3)-IIIa
Experimental: as §3

AAC(3)-Ia = AAC(3)-Ia (Acinetobacter baumannii, UniProt D7R512); experiment: Isothermal titration calorimetry; type: binding
Experimental: as §2

AAC(3)-XIa = AAC(3)-XIa (Corynebacterium striatum, UniProt A0ABX7DED9); experiment: Isothermal titration calorimetry; type: binding; conditions: 25 °C, with coenzyme A, n = 3
Experimental: as §2

[8] = tested on: CNC(C)C1CCC(N)C(OC2C(N)CC(N)C(OC3OCC(C)(O)C(NC)C3O)C2O)O1; experiment: purified protein, by the assay type; conditions: other: AAC(3)-IIIa, 22 °C, pH 6.5, 150 μM acetyl coenzyme A, n = 3
Experimental: The acetylation of aminoglycosides was measured by a coupled assay, where the formation of pyridine-4-thiolate can be detected at 324 nm[42],[43]. The kinetic assays were performed at room temperature (22 °C) in quartz cuvettes (pathlength 1 cm) at a final volume of 0.8 mL. Reaction solution contained 25 mM MOPS pH 6.5, 100 mM NaCl, 500 μM 4,4’-dipyridyl disulfide (Aldrithiol™-4, Sigma-Aldrich), 150 μM acetyl coenzyme A, and aminoglycoside concentrations varying from 1.25 to 160 μM. […] All reactions were run in triplicate, and data analysis was performed using GraphPad5 software. One-way ANOVA and Tukey’s multiple comparison tests were used to determine the statistical significance of catalytic efficiencies.

[9] = biological target: AAC(3)-Ia from Acinetobacter baumannii (Acinetobacter baumannii); experiment: crystal structure; AAC(3)-Ia with CoASH, with or without sisomicin; sitting-drop vapor diffusion at 22 °C, 0.1 M Tris pH 8.5, 0.05 M MgCl2, 20% EtOH, 35% PEG 400; one protomer per asymmetric unit, dimer by crystallographic symmetry
[10] = tested on: CN[C@@H]1[C@@H](O)[C@@H](O[C@@H]2[C@@H](O)[C@H](O[C@H]3OC(CN)=CC[C@H]3N)[C@@H](N)C[C@H]2N)OC[C@]1(C)O; experiment: Michaelis-Menten kinetics, coupled acetylation assay (pyridine-4-thiolate at 324 nm); type: biochemical, Corynebacterium striatum; conditions: other: AAC(3)-XIa, 22 °C, pH 6.5, 150 μM acetyl coenzyme A, n = 3
Experimental: (§4) The acetylation of aminoglycosides was measured by a coupled assay, where the formation of pyridine-4-thiolate can be detected at 324 nm[42],[43]. The kinetic assays were performed at room temperature (22 °C) in quartz cuvettes (pathlength 1 cm) at a final volume of 0.8 mL. Reaction solution contained 25 mM MOPS pH 6.5, 100 mM NaCl, 500 μM 4,4’-dipyridyl disulfide (Aldrithiol™-4, Sigma-Aldrich), 150 μM acetyl coenzyme A, and aminoglycoside concentrations varying from 1.25 to 160 μM. The reaction was initialized by the addition of AAC(3)-Ia to a final concentration of 0.2 μM, AAC(3)-XIa to a final concentration of 1.94 μM, or AAC(3)-IIIa to a final concentration of 0.4 μM, where UV absorbance was measured over 5 min. All reactions were run in triplicate, and data analysis was performed using GraphPad5 software. One-way ANOVA and Tukey’s multiple comparison tests were used to determine the statistical significance of catalytic efficiencies.

[11] = tested on: CNC(C)C1CCC(N)C(OC2C(N)CC(N)C(OC3OCC(C)(O)C(NC)C3O)C2O)O1; experiment: as above; type: biochemical, Corynebacterium striatum; conditions: other: AAC(3)-XIa, 22 °C, pH 6.5, 150 μM acetyl coenzyme A, n = 3
Experimental: as §4

[12] = biological target: AAC(3)-XIa from Corynebacterium striatum (Corynebacterium striatum); experiment: crystal structure; AAC(3)-XIa partial-apo, with AcCoA, or with CoASH/AcNHCoA and an aminoglycoside; sitting-drop vapor diffusion at 22 °C, 0.1 M trisodium acetate pH 4.6, 10–30% MPD, 0–24% PEG 200; both protomers of the dimer in the asymmetric unit
[13] = first set of sites, 25 °C, with coenzyme A, n = 3
[14] = second set of sites, 25 °C, with coenzyme A, n = 3
[15] = 6 μg mL^−1 sisomicin, 3 μg mL^−1 gentamicin
[16] = AAC(3)-Ia, first set of sites, 25 °C, with coenzyme A, n = 3
[17] = AAC(3)-Ia, second set of sites, 25 °C, with coenzyme A, n = 3
[18] = AAC(3)-XIa, second set of sites

Molecule: CNC(C)C1CCC(N)C(OC2C(N)CC(N)C(OC3OCC(C)(O)C(NC)C3O)C2O)O1 (centres unmarked) [Gentamicin, gentamicin]
- MIC [1]: 6 mg/L (≈ 12.6 µM)
- MIC [2]: 6 mg/L (≈ 12.6 µM)
- MIC [3]: 12 mg/L (≈ 25.1 µM)
- MIC [4]: 12 mg/L (≈ 25.1 µM)
- TΔS (AAC(3)-IIIa; [13]): 15.06 ± 0.222 kJ/mol
- ΔG (AAC(3)-IIIa; [13]): -29.04 ± 0.322 kJ/mol
- ΔH (AAC(3)-IIIa; [13]): -13.97 ± 0.234 kJ/mol
- N (sites) (AAC(3)-IIIa; first set of sites, two-set of sites model, 25 °C, with coenzyme A, n = 3): 0.63 ± 0.01 sites
- Kd (AAC(3)-IIIa; first set of sites, two-set of sites model, 25 °C, with coenzyme A, n = 3, read-out: Kd): 8.3 ± 0.2 µM
- Kd (AAC(3)-IIIa; individual replicates, raw data behind Fig. 6, read-out: Kd): 8 µM and 8.13 µM and 8.7 µM
- N2 (sites) (AAC(3)-IIIa; [14]): 0.63 ± 0.01 sites
- TΔS 2 (AAC(3)-IIIa; [14]): 21.92 ± 0.18 kJ/mol
- ΔG 2 (AAC(3)-IIIa; [14]): -27.99 ± 0.322 kJ/mol
- ΔH 2 (AAC(3)-IIIa; [14]): -6.109 ± 0.264 kJ/mol
- Kd (AAC(3)-IIIa; second set of sites, 25 °C, with coenzyme A, n = 3, read-out: Kd2): 12.4 ± 0.5 µM
- Level of resistance relative to empty vector control (OD600 growth curve) [5, 15]: greater level of resistance than the empty vector control
- Growth (OD600 growth curve) ([5]; 12 μg mL^−1 antibiotic, 17 h): none of the strains of transformed E. coli were able to grow at all
- Growth (OD600 growth curve) ([6]; 12 μg mL^−1 antibiotic, 17 h): none of the strains of transformed E. coli were able to grow at all
- Level of resistance relative to empty vector control (OD600 growth curve) ([6]; all concentrations tested): unable to outperform the empty vector control in any experiments
- Level of resistance relative to empty vector control (OD600 growth curve) [7, 15]: greater level of resistance than the empty vector control
- Growth (OD600 growth curve) ([7]; 12 μg mL^−1 antibiotic, 17 h): none of the strains of transformed E. coli were able to grow at all
- TΔS (AAC(3)-Ia; [16]): -3.38 ± 1.44 kJ/mol
- ΔG (AAC(3)-Ia; [16]): -27.28 ± 1.75 kJ/mol
- ΔH (AAC(3)-Ia; [16]): -30.67 ± 0.996 kJ/mol
- N (sites) (AAC(3)-Ia; AAC(3)-Ia, first set of sites, two-set of sites model, 25 °C, with coenzyme A, n = 3): 0.49 ± 0.02 sites
- N2 (sites) (AAC(3)-Ia; [17]): 0.57 ± 0.02 sites
- TΔS 2 (AAC(3)-Ia; [17]): 17.74 ± 0.335 kJ/mol
- ΔG 2 (AAC(3)-Ia; [17]): -26.36 ± 0.469 kJ/mol
- ΔH 2 (AAC(3)-Ia; [17]): -8.619 ± 0.335 kJ/mol
- Kd (AAC(3)-Ia; Kd2, AAC(3)-Ia, second set of sites, 25 °C, with coenzyme A, n = 3): 23.8 ± 0.3 µM
- Kd (AAC(3)-Ia; Kd, AAC(3)-Ia, first set of sites, two-set of sites model, 25 °C, with coenzyme A, n = 3): 17.1 ± 3.2 µM
- Kd (AAC(3)-Ia; Kd, AAC(3)-Ia, individual replicates, raw data behind Fig. 6): 23.5 µM and 13.4 µM and 14.4 µM
- TΔS (AAC(3)-XIa; AAC(3)-XIa, first set of sites): -5.774 ± 0.715 kJ/mol
- ΔG (AAC(3)-XIa; AAC(3)-XIa, first set of sites): -22.51 ± 12.05 kJ/mol
- ΔH (AAC(3)-XIa; AAC(3)-XIa, first set of sites): -28.33 ± 12.01 kJ/mol
- N (sites) (AAC(3)-XIa; AAC(3)-XIa, first set of sites, two-set of sites model): 0.28 ± 0.06 sites
- N2 (sites) (AAC(3)-XIa; [18]): 0.31 ± 0.05 sites
- TΔS 2 (AAC(3)-XIa; [18]): -12.2 ± 4.335 kJ/mol
- ΔG 2 (AAC(3)-XIa; [18]): -29.46 ± 4.937 kJ/mol
- ΔH 2 (AAC(3)-XIa; [18]): -41.66 ± 2.37 kJ/mol
- Kd (AAC(3)-XIa; Kd2, AAC(3)-XIa, second set of sites): 8.5 ± 5.5 µM
- Kd (AAC(3)-XIa; Kd, AAC(3)-XIa, first set of sites, two-set of sites model): 6.1 ± 1.8 µM

Molecule: AAC(3)-IIIa (Pseudomonas aeruginosa)
- Km [8]: 13 ± 4 µM
- kcat [8]: 36 ± 5 s⁻¹
- kcat/Km [8]: 2.7e+06 ± 1.1e+06 M⁻¹ s⁻¹

Molecule: AAC(3)-Ia from Acinetobacter baumannii (enzyme)
- stoichiometry N [9]: 2

Molecule: AAC(3)-XIa (Corynebacterium striatum)
- Km [10]: 6.8 ± 0.7 µM
- kcat [10]: 0.4 ± 0.01 s⁻¹
- kcat/Km [10]: 60000 ± 10000 M⁻¹ s⁻¹
- Km [11]: 0.8 ± 0.2 µM
- kcat [11]: 0.2 ± 0.003 s⁻¹
- kcat/Km [11]: 200000 ± 40000 M⁻¹ s⁻¹

Molecule: AAC(3)-XIa from Corynebacterium striatum (enzyme)
- stoichiometry N [12]: 2
